The text below walks through data of paper PMC6838683, “Discovery of Human Signaling Systems: Pairing Peptides to G Protein-Coupled Receptors” (Cell, 2019).

Like-named read-outs stand apart in the source and are kept apart here. Positions of bridges follow the written chain, without caps; N, C: chain ends. No end group written: not given here.

One assay has as its target T1, GPR139 (Homo sapiens, UniProt Q6DWJ6).
T1 construct: hIL-2Ra signal peptide (N); expressed in transfected cells
T1 sequence (Q6DWJ6 2-353 limits assumed): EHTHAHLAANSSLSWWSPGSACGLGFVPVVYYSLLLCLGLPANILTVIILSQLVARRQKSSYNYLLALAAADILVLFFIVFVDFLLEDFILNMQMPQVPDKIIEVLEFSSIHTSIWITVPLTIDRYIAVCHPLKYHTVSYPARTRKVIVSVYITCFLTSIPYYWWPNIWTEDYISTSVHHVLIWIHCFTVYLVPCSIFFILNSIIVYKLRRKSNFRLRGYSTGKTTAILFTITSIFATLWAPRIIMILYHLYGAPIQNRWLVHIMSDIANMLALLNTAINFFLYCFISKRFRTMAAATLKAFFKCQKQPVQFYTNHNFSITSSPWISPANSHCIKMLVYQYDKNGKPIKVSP
The experiment in a line: Repeat of proposed literature pairing (mass redistribution and/or internalization). In kind it is cell-based. From the text:
(§1) DMR assays provide a single integrated readout of ligand-dependent cellular response, utilizing an optical biosensor in specialized microplates to detect wavelength shifts of reflected light as it passes through the biosensor and the lower portion of the cell (∼150-200 nm). As a signal pathway agnostic approach, DMR assays are well-suited to the study of GPCRs ([Fang et al., 2008], [Schröder et al., 2011]). The mass redistribution response (Δ picometer (pm)) likely reflects a number of intracellular events, including cytoskeletal rearrangement, protein trafficking and receptor internalization. Orphan receptor-expressing cells were gently washed twice with assay buffer (HBSS with 1 mM CaCl2, 1 mM MgCl2, 20 mM HEPES, 0.01% pluronic F-68, pH 7.4) containing 0.1% DMSO and cells were equilibrated for 90 min at 22°C in the EPIC Benchtop (BT) System (Corning) to establish a stable DMR signal. After 3-5 min baseline recordings, peptides (10 μM) were added in duplicate wells using an electronic 384-channel Viaflo pipette (Integra Biosciences, Switzerland) and DMR responses were measured for 60 min at 22°C. 100 nM norepinephrine was included as an internal assay control to assess the cellular DMR response via endogenously-expressed adrenoceptors in the TREx 293 cells. Real-time data were processed using the BT to column converter MS-Excel macro (Corning) and analyzed in GraphPad Prism 7.0. DMR recordings in peptide screening experiments were buffer and solvent corrected and the area under the curve (AUC) was quantified. For subsequent validation experiments, peptides were diluted in assay buffer containing 0.1% DMSO and DMR assays were performed as above. […] Data represent mean ± standard error of the mean (SEM) from at least 3 biologically independent experiments.
A TR-FRET real-time internalization assay was used to examine peptide-dependent changes in orphan receptor localization as described previously ([Foster and Bräuner-Osborne, 2018]). Surface-expressed SNAP-tagged receptors were labeled with a cell-impermeable luminescent terbium cryptate (100 nM SNAP Lumi4-Tb; Cisbio, France) for 1 hr at 37°C. Cells were washed to remove excess terbium and incubated with fluorescein-O-acetic acid (100 μM; Sigma Aldrich) for 5 min at 37°C. Peptides were added as for DMR assays, and internalization responses were recorded for 60 min at 37°C using an EnVision 2104 Multimode plate reader (PerkinElmer). 100 nM GLP-1 was used as a positive control for SNAP-GLP1R internalization. Real-time internalization responses were calculated based on TR-FRET (excitation 340 nm; emission 520 nm and 615 nm), and were expressed as the ratio between donor (terbium) and acceptor (fluorescein) emission. For peptide screening analysis (both DMR and internalization assays), we calculated the area under the curve from the real-time traces. […] Validation experiments for receptor internalization were performed as above. Internalization data was processed in MS-Excel and area under the curve was used to generate concentration-response curves using GraphPad Prism 7.0. Data represent mean ± standard error of the mean (SEM) from at least 3 biologically independent experiments.

The target in a further assay is human GPCRs. The arrangement: method as in Guide to Pharmacology database. To be noted: max reported value, ref Guide to Pharmacology database, cited from earlier work. From the text: Supplement mmc1.xlsx, sheet "HumanGPCRLigands" | column: pKi_value; pKd_value; pEC50_value; pIC50_value
In another assay the target is T2, NPFF1 (Homo sapiens, UniProt Q9GZQ6).
T2 construct: host or cells: HTLA cells (HEK293-derived)
T2 sequence (Q9GZQ6 whole entry): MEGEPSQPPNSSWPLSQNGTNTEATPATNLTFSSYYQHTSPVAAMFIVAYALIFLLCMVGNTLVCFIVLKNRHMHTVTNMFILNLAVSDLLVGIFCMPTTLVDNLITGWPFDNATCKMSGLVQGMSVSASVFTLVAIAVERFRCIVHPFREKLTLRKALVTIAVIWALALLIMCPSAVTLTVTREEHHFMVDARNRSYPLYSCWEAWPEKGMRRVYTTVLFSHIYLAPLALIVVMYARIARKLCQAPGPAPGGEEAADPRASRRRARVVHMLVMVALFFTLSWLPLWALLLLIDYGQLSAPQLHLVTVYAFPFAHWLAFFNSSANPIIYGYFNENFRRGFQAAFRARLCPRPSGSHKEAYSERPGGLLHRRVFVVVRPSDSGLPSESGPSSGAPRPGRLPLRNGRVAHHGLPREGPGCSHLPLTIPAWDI
The experiment in a line: β-arrestin recruitment (Tango), known peptide receptors. The class given is cell-based. To be noted: mean, n = 3. From the text:
Supplement mmc7.xlsx, sheet "Peptide validation data" | column: Emax; pEC50

Assay [1] concerns the target T3, GPR15 (Homo sapiens, UniProt P49685).
T3 construct: hIL-2Ra signal peptide (N); expressed in transfected cells
T3 sequence (P49685 2-360 limits assumed): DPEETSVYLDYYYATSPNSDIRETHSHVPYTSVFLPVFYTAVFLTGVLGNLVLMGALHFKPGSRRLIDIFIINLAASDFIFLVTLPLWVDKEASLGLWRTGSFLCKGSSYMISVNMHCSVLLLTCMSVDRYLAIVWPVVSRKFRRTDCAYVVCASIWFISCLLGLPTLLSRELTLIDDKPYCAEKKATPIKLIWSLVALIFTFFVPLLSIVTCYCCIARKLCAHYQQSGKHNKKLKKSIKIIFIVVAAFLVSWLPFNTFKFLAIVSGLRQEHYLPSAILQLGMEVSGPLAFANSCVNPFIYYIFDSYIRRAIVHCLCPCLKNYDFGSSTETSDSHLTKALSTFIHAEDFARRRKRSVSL
The assay can be described thus: Real-time receptor internalization (TR-FRET), concentration-response. To be noted: mean, SEM and n (3). In kind it is cell-based. The procedure: (§2) 48 hr prior to parallel assaying, SNAP-tagged oGPCR cells were plated (10,000 cells/well) in fibronectin-coated 384-well Epic biosensor microplates (Corning) and poly-D-lysine coated white 384-well plates (for internalization assays). SNAP- GLP-1 receptor was plated alongside orphan receptor cells as an internal assay control for internalization assays. Receptor-expression was induced with 0.1 μg/ml doxycycline.
(§3) A TR-FRET real-time internalization assay was used to examine peptide-dependent changes in orphan receptor localization as described previously ([Foster and Bräuner-Osborne, 2018]). Surface-expressed SNAP-tagged receptors were labeled with a cell-impermeable luminescent terbium cryptate (100 nM SNAP Lumi4-Tb; Cisbio, France) for 1 hr at 37°C. Cells were washed to remove excess terbium and incubated with fluorescein-O-acetic acid (100 μM; Sigma Aldrich) for 5 min at 37°C. Peptides were added as for DMR assays, and internalization responses were recorded for 60 min at 37°C using an EnVision 2104 Multimode plate reader (PerkinElmer). 100 nM GLP-1 was used as a positive control for SNAP-GLP1R internalization. Real-time internalization responses were calculated based on TR-FRET (excitation 340 nm; emission 520 nm and 615 nm), and were expressed as the ratio between donor (terbium) and acceptor (fluorescein) emission. For peptide screening analysis (both DMR and internalization assays), we calculated the area under the curve from the real-time traces. As the magnitude of the responses was variable between orphan receptor targets, particularly for the SNAP-tag based internalization assay where the signal is dependent on receptor surface expression, the AUC values were normalized to their respective plate averages and expressed as fold change. Validation experiments for receptor internalization were performed as above. Internalization data was processed in MS-Excel and area under the curve was used to generate concentration-response curves using GraphPad Prism 7.0. Data represent mean ± standard error of the mean (SEM) from at least 3 biologically independent experiments.
(Time-resolved FRET reads energy transfer from a long-lived donor to a nearby acceptor.)

For assay [2], the target named is T3, GPR15. The assay can be described thus: Dynamic mass redistribution (DMR), concentration-response. The settings on record: receptor GPR15, mean; for DMR assays Emax (peak or AUC): SEM and n (2-3). In kind it is cell-based. As for the experimental part:
as §2, §1

Assay [3] has as its target T3, GPR15. The assay can be described thus: cAMP inhibition (Gi/o), HTRF with forskolin. The class given is cell-based. The settings on record: receptor GPR15, mean, SEM and n (4). The procedure: Peptide-dependent second messenger responses were measured using commercially available HTRF-based IP1 and cAMP kits (Cisbio) as described previously ([Nørskov-Lauritsen et al., 2014]). Receptor expression was induced for 48 hr with 0.1 μg/ml doxycycline in 10 cm dishes. For IP1 measurements (to measure Gq/11), 2,500 cells/well were mixed with ligands in triplicate wells in low volume white 384-well plates at 37°C for 30 min. For cAMP assays, 2,500 cells/well were added in triplicate wells in white 384-well plates in the absence or presence of 3 μM forskolin (to measure Gs and Gi/o activation respectively). 100 μM IBMX was included to prevent cAMP degradation during 30 min stimulation on a plate shaker at room temperature. For both assays, HTRF was measured using an EnVision 2104 Multimode plate reader (PerkinElmer).

The target of another assay is T4, MAS1 (Homo sapiens, UniProt P04201).
T4 construct: host or cells: HTLA cells (HEK293-derived)
T4 sequence (P04201 1-325): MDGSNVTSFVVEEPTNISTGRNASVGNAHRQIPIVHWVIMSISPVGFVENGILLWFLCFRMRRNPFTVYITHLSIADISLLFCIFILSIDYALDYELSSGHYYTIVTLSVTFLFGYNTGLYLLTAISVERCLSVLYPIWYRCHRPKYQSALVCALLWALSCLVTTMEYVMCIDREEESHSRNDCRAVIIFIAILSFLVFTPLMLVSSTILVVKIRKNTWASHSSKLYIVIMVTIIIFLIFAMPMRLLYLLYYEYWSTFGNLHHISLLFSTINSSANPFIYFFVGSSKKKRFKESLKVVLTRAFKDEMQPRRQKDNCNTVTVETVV
The assay can be described thus: β-arrestin recruitment (Tango), indicative pairing. The class given is cell-based. To be noted: mean, n = 3. The procedure: The peptide library was additionally screened against 120 GPCR targets in parallel, including all available orphan receptors and 27 known class A peptide receptors using the Tango assay platform ([Kroeze et al., 2015]). Briefly, HTLA cells (a HEK293 cell line stably expressing a tTA-dependent luciferase reporter and a β-arrestin2-TEV fusion gene) were plated 10,000 cells/well in poly-L-lysine–coated clear-bottom white 384-well plates in DMEM supplemented with 10% FBS, 100 U/ml penicillin and 100 μg/ml streptomycin, 2 μg/ml puromycin and 100 μg/ml hygromycin B. 24 hr later, cells were transfected with Tango GPCR constructs using the calcium phosphate method ([Jordan et al., 1996]). The next day, culture medium was changed to DMEM + 1% dFBS and 10 μM peptides were added for overnight stimulation. Bright-Glo solution (Promega) was incubated for 15–20 min at room temperature, and luminescence was counted using a Trilux luminescence counter (Wallac).
For subsequent peptide validation experiments using Tango assays, HTLA cells were transiently transfected in 10 cm dishes with the receptor of interest using polyethylenimine (PEI) ([Longo et al., 2013]). After 24 hr, 25,000 cells/well were plated in clear bottom, white-walled 384-well plates. Assays were performed as described above, with luminescence measured using an EnSpire 2300 Multimode plate reader (PerkinElmer). Luminescence counts were exported into Excel and were analyzed using GraphPad Prism 7.
On the technique in general: Recruitment of arrestin is a read-out of receptor activation apart from second messengers.

The test system of a further assay is GPR37. The assay can be described thus: Repeat of proposed literature pairing (mass redistribution and/or internalization). In kind it is cell-based, human. The settings on record: repeat of literature pairing; Figure S7A, Tables S5 and S7.
Source text: as §1, §3

With “ACTH (SYSMEHFRWGKPVGKKRRPVKVYPNGAEDESAEAFPLEF; Corticotropin; UniProt P01189 138-176, looked up) [melanocortin receptor ligand, reference compound]”, the “Peptide pairing for orphan receptor GPR139 (confirmed/unconfirmed)” value with GPR139 (repeat of literature pairing) was “Confirmed peptide pairings for orphans”. The “receptor-dependent activation by proposed ligand, GPR139” value with GPR139 (repeat of literature pairing across multiple assays, Figure S7A, Tables S5 and S7) is given as “selective receptor-dependent activation”. The pKi_value on human GPCRs (receptor mc3r_human (MC3R, P41968)) is 7.1; on human GPCRs (receptor mc4r_human (MC4R, P32245)), 6.2; on human GPCRs (receptor mc5r_human (MC5R, P33032)), 5; at human GPCRs (receptor mshr_human (MC1R, Q01726)), 8.6.

For ARANMEAGTMSHFPSLPQRF [Peptide 135], on NPFF1, the “Emax, Tango (fold over basal)” value was determined as 22.0 fold over basal and the “pEC50, Tango (fold over basal)” value was determined as 6.22.

As to KRRPAKAWS [Peptide 64.1], on GPR15 [1], the “Internalization assays Emax (AUC)” value was determined as 3.1. Besides, at GPR15 [2], the “DMR assays Emax (peak or AUC)” value came out at 107. Also, the “cAMP accumulation assays Emax (% FSK)” value at GPR15 [3] is recorded as 98.3 % FSK.

A word on the Emax: it is the greatest response seen or fitted, relative to the assay's reference. For “KRRPAKAWSGRRTRLCCHRVPSPNSTNLKGHHVRLCKPCKLEPEPRLWVVPGALPQV (disulfide 16-39, 17-36) [64.4 (Phoenix)]”, the EC50 at GPR15 [1] (read-out: Internalization assays pEC50 (converted)) is 89.1 nM; on GPR15 [2] (SEM and n (3), read-out: DMR assays pEC50 (converted)), 324 nM; on GPR15 [3] (read-out: cAMP accumulation assays pEC50 (converted)), 1.26 nM. For the same substance, the Emax at GPR15 [3] (read-out: cAMP accumulation assays Emax (% FSK)) turned out to be 41%.

As to LWVVPGALPQV [64 original], the “Internalization assays Emax (AUC)” value at GPR15 [1] amounted to 45.8. In addition, at GPR15 [2], the “DMR assays Emax (peak or AUC)” value was 197. Moreover, on GPR15 [3], the “cAMP accumulation assays Emax (% FSK)” value amounted to 29.2 % FSK.

Take “NAWGPWSKEQLSPQAREFWSLAAPQRF [Peptide 166]”: the “Emax, Tango (fold over basal)” value on NPFF1 worked out at 26.7 fold over basal; on MAS1, 1.2 fold over basal. The “pEC50, Tango (fold over basal)” value at NPFF1 is given as 4.75; on MAS1 it was 7.14.

With RPYLTQGNEIFPD [Peptide 90], on NPFF1, the “Emax, Tango (fold over basal)” value amounted to 9.6 fold over basal and the “pEC50, Tango (fold over basal)” value amounted to 4.27.

Consider “TRLCCHRVPSPNSTNLKGHHVRLCKPCKLEPE (also: bicyclic or more (positions not given here)) [Peptide 64.2]”, for which the “Internalization assays Emax (AUC)” value at GPR15 [1] is 4.3. In addition, the “DMR assays Emax (peak or AUC)” value at GPR15 [2] stood at 81. In addition, on GPR15 [3], the “cAMP accumulation assays Emax (% FSK)” value was found to be 92.5 % FSK.

head activator: the “receptor-dependent activation by proposed ligand, GPR37” value in the assay with GPR37 is given as “no activity”.
